≈ marks a conversion by molar mass, not a printed value. Like-named read-outs stand apart in the source and are kept apart here.
What was measured:
[1] = tested on: methicillin-resistant Staphylococcus aureus ATCC 43300, CCM 4750 (MRSA); assay: Antibacterial microdilution broth method, MRSA; assay type: cell-based; settings: Staphylococcus aureus
[2] = tested on: Staphylococcus epidermidis H 6966/08; assay: Antibacterial microdilution broth method, S. epidermidis; assay type: cell-based; settings: Staphylococcus epidermidis, H6966/08
[3] = tested on: Enterococcus faecalis ATCC 29212, CCM 4224; assay: Antibacterial microdilution broth method, E. faecalis; assay type: cell-based; settings: Enterococcus faecalis
[4] = tested on: Escherichia coli ATCC 25922, CCM 3954; assay: Antibacterial microdilution broth method, E. coli; assay type: cell-based; settings: Escherichia coli
[5] = tested on: Mycobacterium avium 330/88; assay: Antimycobacterial micromethod in Šula's medium, M. avium; assay type: cell-based
[6] = tested on: Mycobacterium kansasii 235/80; assay: Antimycobacterial micromethod in Šula's medium, M. kansasii 235/80; assay type: cell-based
[7] = tested on: M. kansasii 6509/96 (clinical isolate); assay: Antimycobacterial micromethod in Šula's medium, M. kansasii 6509/96; assay type: cell-based; settings: Mycobacterium kansasii
[8] = tested on: Candida albicans ATCC 44859; assay: Antifungal microdilution broth method, C. albicans; assay type: cell-based
Outline: (§1)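 Broth microdilution, EUCAST, modified. Medium: RPMI-1640 + L-glutamine + 2% glucose, MOPS pH 7.0; compounds from DMSO, twofold series. Visual MIC, duplicates, ≤1-step discrepancy accepted.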

Candida krusei E28 = assay: Antifungal microdilution broth method, C. krusei; assay type: cell-based; settings: Pichia kudriavzevii
Outline: as §1

Candida glabrata 20/I = assay: Antifungal microdilution broth method, C. glabrata; assay type: cell-based; settings: Nakaseomyces glabratus
Outline: as §1

Trichosporon asahii 1188 = assay: Antifungal microdilution broth method, T. asahii; assay type: cell-based
Outline: as §1

[9] = tested on: Aspergillus fumigatus 231; assay: Antifungal microdilution broth method, A. fumigatus; assay type: cell-based
Outline: as §1

[10] = tested on: Lichtheimia corymbifera 272; assay: Antifungal microdilution broth method, L. corymbifera; assay type: cell-based
Outline: as §1

[11] = tested on: Trichophyton interdigitale 445; assay: Antifungal microdilution broth method, T. interdigitale; assay type: cell-based
Outline: as §1

HepG2 cells = assay: Cytotoxicity, CellTiter 96 assay; assay type: cell-based, human; settings: 24 h incubation
Experimental: HepG2, human hepatocellular carcinoma cells (ATCC HB-8065; passage 5–8) purchased from Health Protection Agency Culture Collections (ECACC, Salisbury, UK) were cultured in Minimum Essentials Eagle Medium supplemented with 10% fetal bovine serum, 1% L-glutamine solution and non-essential amino acid solution (Sigma-Aldrich, St. Louis, MO, USA) in a humidified atmosphere containing 5% CO2 at 37 °C. For subculturing, the cells were harvested after trypsin/EDTA (Sigma-Aldrich, St. Louis, USA) treatment at 37 °C. To evaluate cytotoxicity, the cells treated with the tested substances were used as experimental groups whereas untreated HepG2 cells served as control groups.
The cells were seeded in a density of 10 000 cells per well in a 96-well plate. The following day the cells were treated with each of the tested substances dissolved in DMSO (maximal incubation concentration of DMSO was 1% v/v). The tested substances were prepared at different incubation concentrations in triplicates according to their solubility. Simultaneously, the controls representing 100% cell viability, 0% cell viability (the cells treated with 10% DMSO), no cell control and vehiculum controls were also involved in triplicates. After 24 h incubation in a humidified atmosphere containing 5% CO2 at 37 °C, the reagent from the kit CellTiter 96 AQueous One Solution Cell Proliferation Assay (CellTiter 96; Promega, Fitchburg, WI, USA) was added. After 2 h incubation at 37 °C absorbance of samples was recorded at 490 nm (TECAN, Infinita M200, Grödig, Austria). A standard toxicological parameter IC50 was calculated by nonlinear regression from a semilogarithmic plot of incubation concentration versus percentage of absorbance relative to untreated controls using GraphPad Prism software (version 6; GraphPad Software, Inc., La Jolla, CA, USA).
The CellTiter 96 assay used is based on the reduction of tetrazolium dye in living cells to formazan, which is then determined colorimetrically. This reduction is related to availability of NADH or NADPH. The decline in levels of these metabolically important compounds in the cell causes that the production of formazan is reduced. For quantitative comparison of cytotoxicity, the parameter IC50 was used.

[12] = tested on: ESBL-positive Klebsiella pneumoniae J 14368/08
[13] = 24 h incubation, read-out: MIC MRSA 24 h
[14] = 48 h incubation, read-out: MIC MRSA 48 h
[15] = S. epidermidis, 24 h incubation, read-out: MIC SE 24 h
[16] = S. epidermidis, 48 h incubation, read-out: MIC SE 48 h
[17] = 24 h incubation, read-out: MIC EF 24 h
[18] = 48 h incubation, read-out: MIC EF 48 h
[19] = 24 h incubation, read-out: MIC EC 24 h
[20] = 48 h incubation, read-out: MIC EC 48 h
[21] = 330/88, 336 h, 14 days incubation at 37 °C, read-out: MIC M. avium 330/88 14 d
[22] = 330/88, 504 h, 21 days incubation at 37 °C, read-out: MIC M. avium 330/88 21 d
[23] = 235/80, 168 h, 7 days incubation at 37 °C, read-out: MIC M. kansasii 235/80 7 d
[24] = 235/80, 336 h, 14 days incubation at 37 °C, read-out: MIC M. kansasii 235/80 14 d
[25] = 235/80, 504 h, 21 days incubation at 37 °C, read-out: MIC M. kansasii 235/80 21 d
[26] = 168 h, 7 days incubation at 37 °C, read-out: MIC M. kansasii 6509/96 7 d
[27] = 336 h, 14 days incubation at 37 °C, read-out: MIC M. kansasii 6509/96 14 d
[28] = 504 h, 21 days incubation at 37 °C, read-out: MIC M. kansasii 6509/96 21 d
[29] = ATCC44859, 24 h, read-out: MIC CA 24 h
[30] = ATCC44859, 48 h, read-out: MIC CA 48 h

Compound | MIC [1, 13] [µM] | MIC [1, 14] [µM] | MIC [2, 15] [µM] | MIC [2, 16] [µM] | MIC [3, 17] [µM] | MIC [3, 18] [µM] | MIC [4, 19] [µM] | MIC [4, 20] [µM] | MIC [5, 21] [µM] | MIC [5, 22] [µM] | MIC [6, 23] [µM] | MIC [6, 24] [µM] | MIC [6, 25] [µM] | MIC [7, 26] [µM] | MIC [7, 27] [µM] | MIC [7, 28] [µM] | MIC [8, 29] [µM] | MIC [8, 30] [µM] | MIC (Candida krusei E28; 24 h, read-out: MIC CK 24 h) [µM] | MIC (Candida krusei E28; 48 h, read-out: MIC CK 48 h) [µM] | further results
O=C(O)c1ccc(N=Cc2cc(I)ccc2O)cc1 [1e, 4-[(2-Hydroxy-5-iodobenzylidene)amino]benzoic acid] | 250 (≈ 91.8 µg/mL) | 250 (≈ 91.8 µg/mL) | 62.5 (≈ 22.9 µg/mL) | 62.5 (≈ 22.9 µg/mL) | > 250 | > 250 | > 250 | > 250 | 500 (≈ 184 µg/mL) | 500 (≈ 184 µg/mL) | 250 (≈ 91.8 µg/mL) | 250 (≈ 91.8 µg/mL) | 250 (≈ 91.8 µg/mL) | 250 (≈ 91.8 µg/mL) | 250 (≈ 91.8 µg/mL) | 500 (≈ 184 µg/mL) | 62.5 (≈ 22.9 µg/mL) | 62.5 (≈ 22.9 µg/mL) | 62.5 (≈ 22.9 µg/mL) | 62.5 (≈ 22.9 µg/mL) | MIC (Candida glabrata 20/I; 24 h, read-out: MIC CG 24 h): 31.2 µM (≈ 11.5 µg/mL); MIC (Candida glabrata 20/I; 48 h, read-out: MIC CG 48 h): 31.2 µM (≈ 11.5 µg/mL); MIC (Trichosporon asahii 1188; 24 h, read-out: MIC TA 24 h): 62.5 µM (≈ 22.9 µg/mL); MIC (Trichosporon asahii 1188; 48 h, read-out: MIC TA 48 h): 62.5 µM (≈ 22.9 µg/mL); MIC ([9]; 24 h, read-out: MIC AF 24 h): 125 µM (≈ 45.9 µg/mL); MIC ([9]; 48 h, read-out: MIC AF 48 h): 125 µM (≈ 45.9 µg/mL); MIC ([10]; 24 h, read-out: MIC LC 24 h): > 125 µM; MIC ([10]; 48 h, read-out: MIC LC 48 h): > 125 µM; MIC ([11]; 72 h, read-out: MIC TI 72 h): 31.2 µM (≈ 11.5 µg/mL); MIC ([11]; 120 h, read-out: MIC TI 120 h): 31.2 µM (≈ 11.5 µg/mL); IC50 (HepG2 cells; Homo sapiens, HepG2, 24 h): 113 µM; MIC KP-E 24 h [12]: >250 µM; MIC KP-E 48 h [12]: >250 µM
O=C(O)c1ccc(N=Cc2cc([N+](=O)[O-])ccc2O)cc1 [1f, 4-[(2-Hydroxy-5-nitrobenzylidene)amino]benzoic acid] | 500 (≈ 143 µg/mL) | 500 (≈ 143 µg/mL) | 250 (≈ 71.6 µg/mL) | 250 (≈ 71.6 µg/mL) | 500 (≈ 143 µg/mL) | 500 (≈ 143 µg/mL) | > 500 | > 500 | 1000 (≈ 286 µg/mL) | > 1000 | 500 (≈ 143 µg/mL) | 500 (≈ 143 µg/mL) | 500 (≈ 143 µg/mL) | 500 (≈ 143 µg/mL) | 500 (≈ 143 µg/mL) | 500 (≈ 143 µg/mL) | 500 (≈ 143 µg/mL) | 500 (≈ 143 µg/mL) | > 500 | > 500 | MIC (Candida glabrata 20/I; 24 h, read-out: MIC CG 24 h): > 500 µM; MIC (Candida glabrata 20/I; 48 h, read-out: MIC CG 48 h): > 500 µM; MIC (Trichosporon asahii 1188; 24 h, read-out: MIC TA 24 h): 500 µM (≈ 143 µg/mL); MIC (Trichosporon asahii 1188; 48 h, read-out: MIC TA 48 h): 500 µM (≈ 143 µg/mL); MIC ([9]; 24 h, read-out: MIC AF 24 h): > 500 µM; MIC ([9]; 48 h, read-out: MIC AF 48 h): > 500 µM; MIC ([10]; 24 h, read-out: MIC LC 24 h): 500 µM (≈ 143 µg/mL); MIC ([10]; 48 h, read-out: MIC LC 48 h): 500 µM (≈ 143 µg/mL); MIC ([11]; 72 h, read-out: MIC TI 72 h): 500 µM (≈ 143 µg/mL); MIC ([11]; 120 h, read-out: MIC TI 120 h): 500 µM (≈ 143 µg/mL); IC50 (HepG2 cells; Homo sapiens, HepG2, 24 h): 244 µM; MIC KP-E 24 h [12]: >500 µM; MIC KP-E 48 h [12]: >500 µM
Cc1ccc(O)c(C=Nc2ccc(C(=O)O)cc2)c1 [1g, 4-[(2-Hydroxy-5-methylbenzylidene)amino]benzoic acid] | > 500 | > 500 | 250 (≈ 63.8 µg/mL) | 250 (≈ 63.8 µg/mL) | > 500 | > 500 | > 500 | > 500 | > 1000 | > 1000 | 500 (≈ 128 µg/mL) | 500 (≈ 128 µg/mL) | 500 (≈ 128 µg/mL) | 500 (≈ 128 µg/mL) | 500 (≈ 128 µg/mL) | 1000 (≈ 255 µg/mL) | > 125 | > 125 | > 125 | > 125 | MIC ([2]; time not stated, read-out: MIC, S. epidermidis): ≥ 250 µM; MIC (Candida glabrata 20/I; 24 h, read-out: MIC CG 24 h): > 125 µM; MIC (Candida glabrata 20/I; 48 h, read-out: MIC CG 48 h): > 125 µM; MIC (Trichosporon asahii 1188; 24 h, read-out: MIC TA 24 h): > 125 µM; MIC (Trichosporon asahii 1188; 48 h, read-out: MIC TA 48 h): > 125 µM; MIC ([9]; 24 h, read-out: MIC AF 24 h): > 125 µM; MIC ([9]; 48 h, read-out: MIC AF 48 h): > 125 µM; MIC ([10]; 24 h, read-out: MIC LC 24 h): > 125 µM; MIC ([10]; 48 h, read-out: MIC LC 48 h): > 125 µM; MIC ([11]; 72 h, read-out: MIC TI 72 h): > 125 µM; MIC ([11]; 120 h, read-out: MIC TI 120 h): > 125 µM; IC50 (HepG2 cells): 956 µM; IC50 (HepG2 cells; Homo sapiens, HepG2, 24 h): > 500 µM; MIC KP-E 24 h [12]: >500 µM; MIC KP-E 48 h [12]: >500 µM
